Here are results for 15 compounds from patent publication US20250051327A1, “MALT-1 MODULATORS” (EXSCIENTIA AI LIMITED, priority 2020, published 2025).

Test [1] addresses Recombinant human MALT-1 (amino acids 340-824) (Homo sapiens (Human), UniProt Q9UDY8). Briefly: MALT-1 inhibition assay (fluorogenic substrate Ac-LRSR-Rh110-DP). It counts as biochemical. The settings on record: recombinant human MALT-1, substrate Ac-LRSR-Rh110-DP. In a few lines: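 Reactions were started with fluorogenic substrate Ac-LRSR-Rh110-DP (10 μM final) against 3 nM enzyme and kept dark at 25° C for 60 minutes. IC50 values came from 4-parameter logistic fits of percent inhibition calculated from relative fluorescence units.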

For test [2], the system named is IL-2 secretion by human effector memory T cells (TEM). Description: Effector memory T cells IL-2 release assay. It is filed as cell-based. The settings on record: T-cell; human CD4+ effector memory T cells, CD3/CD28 bead stimulation, 24 h; read-out: CD4TC IL2 IC50. As for the experimental part: Effector Memory T Cells IL-2 Release Assay
Test compound-mediated inhibition of NFκB signalling in T cells was assessed by quantification of the IL-2 secretion by human effector memory T cells (TEM) upon treatment and stimulation. Human TEM cells were isolated from buffy coats of healthy donors obtained from the French blood bank. First, peripheral blood mononuclear cells (PBMC) were purified from buffy coats diluted 1:1 with DPBS (Gibco, cat #14190-094) by Pancoll (PAN BIOTECH, cat #P04-60500) density gradient centrifugation at 400×g for 20 minutes. TEM cells were further enriched by negative immuno-magnetic cell sorting using a human CD4+ Effector Memory T Cell Isolation Kit (Miltenyi, cat #130-094-125) according to the manufacturer's instructions. Aliquots of 3×10E6 purified TEM cells were kept frozen in Cryo-SFM medium (PromoCell, cat #C-29912) in gas phase nitrogen until used. Cell purity was verified by flow cytometry analysis of 200 000 PFA-fixed cells previously labelled with monoclonal antibodies anti-CD4-PerCP-Cy5.5 (BD Pharmigen, cat #332772), anti-CD8-V500 (BD Biosciences, cat #561617), anti-CD14-Pacific Blue (Biolegend, cat #325616), anti-CD45 RA-FITC (Biolegend, cat #304106) and anti-CCR7-APC (in CD4+ Effector Memory T Cell Isolation Kit, Miltenyi, cat #130-094-125).
TEM cells were resuspended in complete RPMI medium composed of: RPMI 1640 (Gibco, cat #31870-025), 10% heat inactivated fetal bovine serum (Sigma, cat #F7524), 2 mM GlutaMAX (Gibco, cat #35050-038), 1 mM sodium pyruvate 100× (Gibco, cat #11360-039), 1% MEM non-essential amino acids solution (Gibco, cat #11140-035) and 100 U/mL penicillin, 100 μg/mL streptomycin (Sigma-Aldrich, cat #11074440001). 5,000 cells per well were plated onto flat clear bottom 384 well plates (Corning, cat #3770). 5,000 Dynabeads Human T-Activator CD3/CD28 (Gibco, cat #11132D) were added to each well for cell stimulation. Finally, 10 doses of test compound, originally prepared in DMSO by serial semi-log step dilution, were also added to cells in triplicate wells. Final DMSO concentration in wells was 0.1% in a total volume of 100 μL complete medium. Plates were incubated for 24 h at 37° C. in 5% CO2 atmosphere. After incubation, cell suspensions were centrifuged at 400×g and culture supernatants were recovered and stored at −80° C. Cell viability was assessed by flow cytometry after staining the cells with Fixable Viability Dye eFluor 780 (Invitrogen, cat #65-0865-14). IL-2 levels were determined in cell supernatants using an HTRF human IL-2 detection kit (Cisbio, cat #62HIL02PEH). IL-2 data at the different compound doses were fitted to a 4-parameter logistic curve to determine IC50 values, corresponding to the compound concentration leading to 50% reduction of the maximal IL-2 levels observed in each experiment. Viability data were analysed similarly to exclude cytotoxicity as a cause of IL-2 decrease (see Table 1).

Sequence of Recombinant human MALT-1 (amino acids 340-824) (Q9UDY8 340-824): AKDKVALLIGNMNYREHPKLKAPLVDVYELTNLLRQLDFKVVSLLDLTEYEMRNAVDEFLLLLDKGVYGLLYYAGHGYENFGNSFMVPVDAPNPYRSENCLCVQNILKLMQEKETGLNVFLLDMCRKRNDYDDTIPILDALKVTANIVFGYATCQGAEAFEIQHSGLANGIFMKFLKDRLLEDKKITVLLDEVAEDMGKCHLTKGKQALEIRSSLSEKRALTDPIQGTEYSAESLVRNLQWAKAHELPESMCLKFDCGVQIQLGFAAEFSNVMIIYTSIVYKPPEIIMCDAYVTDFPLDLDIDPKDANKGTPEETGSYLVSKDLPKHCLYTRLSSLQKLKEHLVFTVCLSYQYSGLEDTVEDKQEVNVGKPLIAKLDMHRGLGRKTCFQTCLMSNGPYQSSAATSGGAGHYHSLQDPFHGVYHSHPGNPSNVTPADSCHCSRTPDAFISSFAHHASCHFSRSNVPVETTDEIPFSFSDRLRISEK

Take `CN(C(=O)[C@H]1CC12CCS(=O)(=O)CC2)[C@@H](c1ccc(N2CCCc3c2cnc2cc(Cl)nn32)cc1)C(F)(F)F` (relative stereo) [CPD0073922, (1rel-S)-N-[(1S)-1-(4-{4-chloro-2,3,7,10-tetraazatricyclo[7.4.0.0^2,6]trideca-1(9),3,5,7-tetraen-10-yl}phenyl)-2,2,2-trifluoroethyl]-N-methyl-6,6-dioxo-6λ^6-thiaspiro[2.5]octane-1-carboxamide]: the values for the half-maximal inhibitory concentration (IC50) in test [1] and in test [2] were 173 nM and 994 nM, respectively.

Turning to `CN(C(=O)C1C2CS(=O)(=O)CC21)[C@@H](c1ccc(N2CCCc3c2cnc2cc(Cl)nn32)cc1)C(F)(F)F` (stereo partly drawn) [CPD0072801, N-[(1S)-1-(4-{4-chloro-2,3,7,10-tetraazatricyclo[7.4.0.0^2,6]trideca-1(9),3,5,7-tetraen-10-yl}phenyl)-2,2,2-trifluoroethyl]-N-methyl-3,3-dioxo-3λ^6-thiabicyclo[3.1.0]hexane-6-carboxamide], the IC50 was determined as 95 nM in test [1] and 147 nM in test [2].

In the case of `CSc1cc2ncc3c(n2n1)CCCN3c1ccc([C@H](N(C)C(=O)C2CCS(=O)(=O)CC2)C(F)(F)F)cc1` [CPD0021815, N-methyl-1,1-dioxo-N-[(1S)-2,2,2-trifluoro-1-{4-[4-(methylsulfanyl)-2,3,7,10-tetraazatricyclo[7.4.0.0^2,6]trideca-1(9),3,5,7-tetraen-10-yl]phenyl}ethyl]-1λ^6-thiane-4-carboxamide], the half-inhibitory concentration (IC50) in test [1] came out at 332 nM; in test [2], 228 nM.

Turning to `COC(=O)N(C)[C@@H](c1ccc(N2CCCc3c2cnc2cc(Cl)nn32)cc1)C(F)(F)F` [CPD0021733, Methyl N-[(1S)-1-(4-{4-chloro-2,3,7,10-tetraazatricyclo[7.4.0.0^2,6]trideca-1(9),3,5,7-tetraen-10-yl}phenyl)-2,2,2-trifluoroethyl]-N-methylcarbamate], the 50% inhibitory concentration (IC50) in test [1] came to 339 nM; in test [2] it was 412 nM.

For the compound `CN(C(=O)C1CCS(=O)(=O)CC1)[C@@H](c1ccc(N2CCCc3c2cnc2cc(Cl)nn32)cc1)C(F)F` [CPD0073041, N-[(1S)-1-(4-{4-chloro-2,3,7,10-tetraazatricyclo[7.4.0.0^2,6]trideca-1(9),3,5,7-tetraen-10-yl}phenyl)-2,2-difluoroethyl]-N-methyl-1,1-dioxo-1λ^6-thiane-4-carboxamide], the IC50 in test [1] was 432 nM; in test [2], 5780 nM.

On to `CN(C(=O)[C@H]1C[C@@](C)(O)C1)[C@@H](c1ccc(N2CCCc3c2cnc2cc(Cl)nn32)cc1)C(F)(F)F` [CPD0072437, (1r,3s)-N-[(1S)-1-(4-{4-chloro-2,3,7,10-tetraazatricyclo[7.4.0.0^2,6]trideca-1(9),3,5,7-tetraen-10-yl}phenyl)-2,2,2-trifluoroethyl]-3-hydroxy-N,3-dimethylcyclobutane-1-carboxamide], for which the IC50 in test [1] is 123 nM; in test [2], 178 nM.

Regarding `COc1cc2ncc3c(n2n1)CCCN3c1ccc([C@H](N(C)C(=O)C2CCS(=O)(=O)CC2)C(F)(F)F)cc1` [CPD0019576, N-methyl-1,1-dioxo-N-[(1S)-2,2,2-trifluoro-1-(4-{4-methoxy-2,3,7,10-tetraazatricyclo[7.4.0.0^2,6]trideca-1(9),3,5,7-tetraen-10-yl}phenyl)ethyl]-1λ^6-thiane-4-carboxamide], the IC50 in test [1] was 313 nM; in test [2], 1250 nM.

Consider `CN1C[C@H](C(=O)N(C)[C@@H](c2ccc(N3CCCc4c3cnc3cc(Cl)nn43)cc2)C(F)(F)F)CCC1=O` (relative stereo) [CPD0073197, (3rel-R)-N-[(1S)-1-(4-{4-chloro-2,3,7,10-tetraazatricyclo[7.4.0.0^2,6]trideca-1(9),3,5,7-tetraen-10-yl}phenyl)-2,2,2-trifluoroethyl]-N,1-dimethyl-6-oxopiperidine-3-carboxamide], for which the results for the IC50 in test [1] and in test [2] were 103 nM and 207 nM, respectively.

As for `CN(C(=O)C1CCS(=O)(=O)CC1)[C@@H](c1ccc(N2CC(C)(C)Cc3c2cnc2cc(Cl)nn32)cc1)C(F)(F)F` [CPD0022149, N-[(1S)-1-(4-{4-chloro-12,12-dimethyl-2,3,7,10-tetraazatricyclo[7.4.0.0^2,6]trideca-1(9),3,5,7-tetraen-10-yl}phenyl)-2,2,2-trifluoroethyl]-N-methyl-1,1-dioxo-1λ^6-thiane-4-carboxamide], the IC50 came to 71 nM in test [1] and 93 nM in test [2].

Turning to `CN(C(=O)[C@H]1CC[S@+]([O-])CC1)[C@@H](c1ccc(N2CCC(C)(C)c3c2cnc2cc(Cl)nn32)cc1)C(F)(F)F` (relative stereo) [CPD0072777, (1rel-r,4rel-r)-N-[(1S)-1-(4-{4-chloro-13,13-dimethyl-2,3,7,10-tetraazatricyclo[7.4.0.0^2,6]trideca-1(9),3,5,7-tetraen-10-yl}phenyl)-2,2,2-trifluoroethyl]-N-methyl-1-oxo-1λ^4-thiane-4-carboxamide], the IC50 in test [1] came out at 62 nM; in test [2], 36 nM.

Consider `CN(C(=O)[C@H]1CC[S@@](=N)(=O)CC1)[C@@H](c1ccc(N2CCC3(CC3)c3c2cnc2cc(F)nn32)cc1)C(F)(F)F` (relative stereo) [CPD0072852, (1rel-s,4rel-s)-1-imino-N-methyl-1-oxo-N-[(1S)-2,2,2-trifluoro-1-(4-{4′-fluoro-2′,3′,7′,10′-tetraazaspiro[cyclopropane-1,13′-tricyclo[7.4.0.0^2,6]tridecane]-1′(9′),3′,5′,7′-tetraen-10′-yl}phenyl)ethyl]-1λ^6-thiane-4-carboxamide], for which the values for the IC50 in test [1] and in test [2] were 28 nM and 65 nM, respectively.

`CN(C(=O)C1CCCCO1)[C@@H](c1ccc(N2CCCc3c2cnc2cc(Cl)nn32)cc1)C(F)(F)F` (stereo partly drawn) [CPD0021569, N-[(1S)-1-(4-{4-chloro-2,3,7,10-tetraazatricyclo[7.4.0.0^2,6]trideca-1(9),3,5,7-tetraen-10-yl}phenyl)-2,2,2-trifluoroethyl]-N-methyloxane-2-carboxamide]: the IC50 in test [1] is 211 nM; in test [2], 325 nM.

In the case of `CN(C(=O)C1CCS(=O)(=O)CC1)[C@@H](c1ccc(N2CCCc3c2cnc2cc(Cl)nn32)nc1)C(F)(F)F` [CPD0019212, N-[(1S)-1-(6-{4-chloro-2,3,7,10-tetraazatricyclo[7.4.0.0^2,6]trideca-1(9),3,5,7-tetraen-10-yl}pyridin-3-yl)-2,2,2-trifluoroethyl]-N-methyl-1,1-dioxo-1λ^6-thiane-4-carboxamide], the 50% inhibitory concentration (IC50) in test [2] came out at 452 nM.

For the compound `CN(C(=O)[C@H]1CC[S@](=N)(=O)CC1)[C@@H](c1ccc(N2CC(C)(C)Cc3c2cnc2cc(Cl)nn32)cc1)C(F)(F)F` [CPD0073497, (1rel r,4rel r)-N-[(1S)-1-(4-{4-chloro-12,12-dimethyl-2,3,7,10-tetraazatricyclo[7.4.0.0^2,6]trideca-1(9),3,5,7-tetraen-10-yl}phenyl)-2,2,2-trifluoroethyl]-1-imino-N-methyl-1-oxo-1λ^6-thiane-4-carboxamide], in test [2], the concentration for half-maximal inhibition (IC50) worked out at 183 nM.

Take `COc1ccc2ncc(Nc3ccc([C@H](N(C)C(=O)C4CCS(=O)(=O)CC4)C(F)(F)F)cc3)c([C@@H](C)OC)c2n1` (relative stereo) [CPD0019171, N-methyl-1,1-dioxo-N-[(1S)-2,2,2-trifluoro-1-[4-({6-methoxy-4-[(1 rel R)-1-methoxyethyl]-1,5-naphthyridin-3-yl}amino)phenyl]ethyl]-1λ^6-thiane-4-carboxamide]: the IC50 in test [2] was found to be 110 nM.

What is called IC50 is the point on the concentration scale where inhibition reaches its midpoint.
